Measured values published in US20240041042A1, “1-(PYRIDYL)-5-AZINYLPYRAZOLE DERIVATIVES, AND THEIR USE FOR CONTROL OF UNDESIRED PLANT GROWTH” (Bayer Aktiengesellschaft, priority 2020, published 2024).
Where two headings read alike, the source gives them in different places.

Experiments:
Assay type in all cases: in vivo
[1] = system: Alopecurus myosuroides (ALOMY); experiment: Pre-emergence herbicidal action against ALOMY; conditions: scored visually after about 3 weeks, 100% = plants have died
Method in brief: (§1)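 Dosages of 320 g/ha or less; pre-emergence; WP or EC in aqueous spray, 0.5% additive, 600 l/ha; greenhouse; visual % effect after ~3 wk relative to control pots.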

[2] = system: Amaranthus retroflexus (AMARE); experiment: Pre-emergence herbicidal action against AMARE; conditions: visual scoring after about 3 weeks vs untreated controls
Method in brief: as §1

Avena fatua (AVEFA) [3] = experiment: Pre-emergence herbicidal action against AVEFA; conditions: 320 g/ha, visual scoring after about 3 weeks vs untreated controls
Method in brief: as §1

[4] = system: Echinochloa crus-galli (ECHCG); experiment: Pre-emergence herbicidal action against ECHCG; conditions: dosage 320 g/ha
Method in brief: as §1

Lolium rigidum (LOLRI) = experiment: Pre-emergence herbicidal action against LOLRI; conditions: dosage 320 g/ha
Method in brief: as §1

[5] = system: Matricaria inodora (MATIN); experiment: Pre-emergence herbicidal action against MATIN; conditions: dosage 320 g/ha
Method in brief: as §1

[6] = system: Pharbitis purpurea (PHBPU); experiment: Pre-emergence herbicidal action against PHBPU; conditions: dosage 320 g/ha
Method in brief: as §1

[7] = system: Polygonum convolvulus (POLCO); experiment: Pre-emergence herbicidal action against POLCO; conditions: dosage 320 g/ha
Method in brief: as §1

Setaria viridis (SETVI) [8] = experiment: Pre-emergence herbicidal action against SETVI
Method in brief: as §1

[9] = system: Verconica persica (VERPE); experiment: Pre-emergence herbicidal action against VERPE
Method in brief: as §1

Viola tricolor (VIOTR) = experiment: Pre-emergence herbicidal action against VIOTR; conditions: 320 g/ha, Viola tricolor
Method in brief: as §1

[10] = system: Alopecurus myosuroides (ALOMY); experiment: Post-emergence herbicidal action against ALOMY; conditions: 80 g/ha, visual rating about 3 weeks after treatment vs untreated controls (100% = plants have died, 0% = like control plants)
Method in brief: (§2)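 Doses of 320 g/ha or lower, suffixes a, b and c marking different dosages, were applied post-emergence at the one-leaf stage in 600 l/ha water with 0.5% additive. Damage was assessed visually after about 3 weeks in the greenhouse.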

[11] = system: Amaranthus retroflexus (AMARE); experiment: Post-emergence herbicidal action against AMARE; conditions: 80 g/ha, visual rating about 3 weeks after treatment vs untreated controls (100% = plants have died, 0% = like control plants)
Method in brief: as §2

[12] = system: Echinochloa crus-galli (ECHCG); experiment: Post-emergence herbicidal action against ECHCG; conditions: dosage 80 g/ha
Method in brief: as §2

[13] = system: Matricaria inodora (MATIN); experiment: Post-emergence herbicidal action against MATIN; conditions: dosage 80 g/ha
Description: Seeds of monocotyledonous and dicotyledonous weeds and crop plants are placed in sandy loam in plastic or organic planting pots, covered with soil and cultivated in a greenhouse under controlled growth conditions. 2 to 3 weeks after sowing, the test plants are treated at the one-leaf stage. The compounds of the invention, formulated in the form of wettable powders (WP) or as emulsion concentrates (EC), are then sprayed onto the green parts of the plants as aqueous suspension or emulsion with addition of 0.5% additive at a water application rate of 600 l/ha (converted). After the test plants have been kept in the greenhouse under optimum growth conditions for about 3 weeks, the activity of the preparations is rated visually in comparison to untreated controls. For example, 100% activity=the plants have died, 0% activity=like control plants.
Tables B1 to B13 below show the effects of selected compounds of the general formula (I) according to Table 1 on various harmful plants and at an application rate corresponding to 320 g/ha or lower, which were obtained by the experimental procedure mentioned above. The appendices “a”, “b” and “c” give differentiation by dosage used with otherwise the same harmful plants tested.

Setaria viridis (SETVI) [14] = experiment: Post-emergence herbicidal action against SETVI; conditions: dosage 80 g/ha
Method in brief: as §2

[15] = system: Verconica persica (VERPE); experiment: Post-emergence herbicidal action against VERPE; conditions: dosage 80 g/ha
Method in brief: as §2

Oryza sativa (ORYSA) = conditions: crop plant compatibility
Method in brief: (§3)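 Percent effect on the crop was judged by eye against untreated controls, where 0% means like control and 100% means dead plants. Plants had been sprayed post-emergence at the one-leaf stage and then kept under optimum greenhouse conditions for about 3 weeks.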

Zea mays (ZEAMX) = conditions: 20 g/ha, ZEAMX, effect in comparison to untreated controls
Method in brief: as §3

Avena fatua (AVEFA) [16] = experiment: Post-emergence herbicidal action against AVEFA; conditions: 80 g/ha, visual rating about 3 weeks after treatment
Method in brief: as §2

[17] = 20 g/ha, effect vs untreated controls

| SMILES | Pre-emergence action against ALOMY ([1]; 80 g/ha) [%] | Pre-emergence action against ALOMY ([1]; 320 g/ha) [%] | Pre-emergence action against AMARE in % ([2]; 80 g/ha) [%] | Pre-emergence action against AMARE in % ([2]; 320 g/ha) [%] | Pre-emergence action against AVEFA in % (Avena fatua (AVEFA) [3]) [%] | Pre-emergence action against ECHCG in % [4] [%] | Pre-emergence action against LOLRI in % (Lolium rigidum (LOLRI)) [%] | Pre-emergence action against MATIN in % [5] [%] | Pre-emergence action against PHBPU in % [6] [%] | Pre-emergence action against POLCO in % [7] [%] | Pre-emergence action against SETVI in % (Setaria viridis (SETVI) [8]; dosage 320 g/ha) [%] | Pre-emergence action against VERPE in % ([9]; dosage 320 g/ha) [%] | Pre-emergence action against VIOTR in % (Viola tricolor (VIOTR)) [%] | Post-emergence action against ALOMY in % [10] [%] | Post-emergence action against AMARE in % [11] [%] | Post-emergence action against ECHCG in % [12] [%] | Post-emergence action against MATIN in % [13] [%] | Post-emergence action against VERPE in % [15] [%] | Post-emergence action against ORYSA in % (Oryza sativa (ORYSA); [17]) [%] | Post-emergence action against ZEAMX in % (crop plant compatibility) (Zea mays (ZEAMX)) [%] | further results |
| --- | --- | --- | --- | --- | --- | --- | --- | --- | --- | --- | --- | --- | --- | --- | --- | --- | --- | --- | --- | --- | --- |
| COC(=O)CCOC(=O)COc1nn(-c2ccccn2)c(-c2ccc(F)nc2)c1Br [Example I-116] | 90 | 100 | 90 | 100 | 90 | 100 | 100 | 90 | 90 | 90 | 100 | 90 | 90 | 90 | 90 | 80 | 80 | 80 | 10 | 20 | Pre-emergence action against SETVI in % (Setaria viridis (SETVI) [8]; dosage 80 g/ha): 90%; Pre-emergence action against VERPE in % ([9]; dosage 80 g/ha): 90%; Post-emergence action against SETVI in % (Setaria viridis (SETVI) [14]): 80%; Post-emergence action against ORYSA in % (Oryza sativa (ORYSA); 80 g/ha, effect in comparison to untreated controls): 10% |
| O=C(O)COc1nn(-c2ccccn2)c(-c2ccc(F)nc2)c1Cl [Example I-98] | 90 | 100 | 100 | 100 | 80 | 100 | 100 | 90 | 90 | 90 | 100 | 100 | 100 | 90 | 80 | 80 | 80 | 80 | 10 | 10 | Post-emergence action against AVEFA in % (Avena fatua (AVEFA) [16]): 80% |
